From patent US20260217683A1, “PYRIDAZINONE HETEROCYCLIC COMPOUND MYOSIN II INHIBITOR AND USE THEREOF” (Xizang Haisco Pharmaceutical Co., Ltd., priority 2023, published 2026)

Test: Pharmacokinetic experiment of beagle dogs
Assay type: in vivo
Conditions: male, dog, plasma, oral, beagles, intragastric 3 mg/kg vs intravenous 1 mg/kg, read-out: bioavailability (F)
Experimental: 1. Experimental animals: male beagle dogs, about 8-11 kg, 6 beagle dogs/compound, purchased from Beijing Marshall Biotechnology Co., Ltd.
2. Experimental method: On the day of the test, (6×number of test compounds (n)) beagles were randomly divided into groups according to body weight. The animals were fasted with water available for 12 to 14 h one day before the administration and were fed 4 h after the administration. Administration was performed as per Table 6.
• Before and after the administration, 1 mL of blood was taken from the jugular veins or limb veins, and placed in an EDTAK2 centrifuge tube. Centrifugation was performed at 5000 rpm at 4° C. for 10 min, and plasma was collected. The blood collection time points for the intravenous group and intragastric administration group were: 0 min, 5 min, 15 min, 30 min, 1 h, 2 h, 4 h, 6 h, 8 h, 10 h, 12 h, 24 h, 48 h, 72 h, and 96 h. Before analysis and detection, all samples were stored at −80° C. The samples were analyzed quantitatively by LC-MS/MS.

SMILES: O=C1CCc2ccc(Cn3nc(-c4cnc(OCC(F)F)nc4)ccc3=O)cc21 [Compound 131]
- bioavailability: 112%
